Assay results taken from ChEMBL document CHEMBL5316331, “Modulating Cytotoxicity with Lego-like Chemistry: Upgrading Mitochondriotropic Antioxidants with Prototypical Cationic Carrier Bricks” (J Med Chem, 2023).
Calls of active or inactive are those of the source. The rule behind the calls is not given here.

Legend:
SH-SY5Y [1] = assay: Effect on cell morphology in human SH-SY5Y cells assessed as reduction in neurite at 50 uM incubated for 24 hrs by Phase-contrast microscopy; format: functional, cell-based
SH-SY5Y [2] = assay: Cytotoxicity against human SH-SY5Y cells assessed as decrease in cellular metabolic activity at 1 to 100 uM incubated upto 48 hrs by resazurin reduction assay; format: toxicity, cell-based; details: dose 1-100 µM
SH-SY5Y [3] = assay: Cytotoxicity against human SH-SY5Y cells assessed as decrease in lysosomal activity at > 25 uM incubated for 24 hrs by neutral red uptake assay; format: toxicity, cell-based
SH-SY5Y [4] = assay: Effect on cell death pathway in human SH-SY5Y cells assessed as increase in early apoptotic cells at 50 uM incubated for 24 hrs by Annexin V-FITC/PI staining based microscopy; format: functional
SH-SY5Y [5] = assay: Neuroprotective activity against tBHP-induced human SH-SY5Y cells assessed as increase in cell viability at 10 uM preincubated for 30 mins followed by t-BHP addition and measured after 24 hrs by SRB assay; format: functional, cell-based; details: time 24.5 hrs
HepG2 [6] = assay: Cytotoxicity against human HepG2 cells assessed as decrease in cellular metabolic activity at > 3.1 uM incubated for 24 hrs by resazurin reduction assay; format: toxicity, cell-based; details: hepg2, 24 h
SH-SY5Y [7] = assay: Antioxidant activity against human SH-SY5Y cells assessed as effect on ATP production-linked respiration at 10 uM incubated for 24 hrs followed by addition of oligomycin/FCCP/antimycin A /rotenone by Cell Mito stress assay based seahorse XF96 flux analyzer; format: functional
SH-SY5Y [8] = assay: Effect on cell death pathway in human SH-SY5Y cells assessed as increase in late apoptotic cells at 50 uM incubated for 24 hrs by Annexin V-FITC/PI staining based microscopy; format: functional
SH-SY5Y [9] = assay: Neuroprotective activity against tBHP-induced human SH-SY5Y cells assessed as increase in cell viability at 10 uM preincubated for 30 mins followed by t-BHP addition at 15 uM and measured after 24 hrs by neutral dye uptake assay relative to control; format: functional; details: time 24.5 hrs
SH-SY5Y [10] = assay: Antioxidant activity against human SH-SY5Y cells assessed as increase in proton leak-associated respiration at 10 uM incubated for 24 hrs followed by addition of oligomycin/FCCP/antimycin A /rotenone by Cell Mito stress assay based seahorse XF96 flux analyzer; format: functional
[11] = Drug uptake in C57BL/6J mouse liver mitochondria at 5 uM in presence of rotenone by UPLC analysis; format: ADME
SH-SY5Y [12] = assay: Neuroprotective activity against tBHP-induced human SH-SY5Y cells assessed as increase in cell viability at 10 uM preincubated for 30 mins followed by t-BHP addition at 30 uM and measured after 24 hrs by neutral dye uptake assay relative to control; format: functional; details: time 24.5 hrs
SH-SY5Y [13] = assay: Induction of mitochondrial membrane polarization in human SH-SY5Y cells at 50 uM incubated for 24 hrs by JC-1 staining based fluorescence assay; format: functional
HepG2 [14] = assay: Cytotoxicity against human HepG2 cells assessed as decrease in cell mass at > 6.25 uM incubated for 24 hrs by SRB assay; format: toxicity, cell-based; details: hepg2, 24 h
SH-SY5Y [15] = assay: Effect on cell morphology in human SH-SY5Y cells assessed as reduction in neurite at 10 uM incubated for 24 hrs by Phase-contrast microscopy; format: functional, cell-based
SH-SY5Y [16] = assay: Neuroprotective activity against H2O2-induced human SH-SY5Y cells assessed as increase in cell viability at 10 uM preincubated for 30 mins followed by H2O2 addition and measured after 24 hrs by SRB assay; format: functional, cell-based; details: time 24.5 hrs
SH-SY5Y [17] = assay: Cytotoxicity against human SH-SY5Y cells assessed as decrease in lysosomal activity at > 50 uM incubated for 24 hrs by neutral red uptake assay; format: toxicity, cell-based
SH-SY5Y [18] = assay: Effect on cell death pathway in human SH-SY5Y cells assessed as increase in late apoptotic cells at 10 uM incubated for 24 hrs by Annexin V-FITC/PI staining based microscopy; format: functional
HepG2 [19] = assay: Cytotoxicity against human HepG2 cells assessed as decrease in cellular metabolic activity at > 10 uM incubated for 24 hrs by resazurin reduction assay; format: toxicity, cell-based; details: hepg2, 24 h
[20] = Drug uptake in C57BL/6J mouse liver mitochondria at 5 uM in presence of FCCP by UPLC analysis; format: ADME
SH-SY5Y [21] = assay: Cytotoxicity against human SH-SY5Y cells assessed as decrease in lysosomal activity at 1 to 100 uM incubated upto 48 hrs by resazurin reduction assay; format: toxicity, cell-based; details: dose 1-100 µM
SH-SY5Y [22] = assay: Effect on cell death pathway in human SH-SY5Y cells assessed as increase in necrotic cells at 50 uM incubated for 24 hrs by Annexin V-FITC/PI staining based microscopy; format: functional
SH-SY5Y [23] = assay: Effect on cell death pathway in human SH-SY5Y cells assessed as increase in early apoptotic cells at 10 uM incubated for 24 hrs by Annexin V-FITC/PI staining based microscopy; format: functional
SH-SY5Y [24] = assay: Effect on cell death pathway in human SH-SY5Y cells assessed as increase in necrotic cells at 10 uM incubated for 24 hrs by Annexin V-FITC/PI staining based microscopy; format: functional
SH-SY5Y [25] = assay: Effect on cell morphology in human SH-SY5Y cells assessed as reduction in cell body at 50 uM incubated for 24 hrs by Phase-contrast microscopy; format: functional, cell-based
SH-SY5Y [26] = assay: Effect on cell mitochondrial mass in human SH-SY5Y cells assessed as reduction on mitochondrial mass at 10 uM incubated for 24 hrs by mito-tracker green dye based flow cytometry; format: functional; design: scale not given: the % may be the effect or the level left
SH-SY5Y [27] = assay: Antioxidant activity against human SH-SY5Y cells assessed as effect on intracellular ATP level at 10 uM incubated for 24 hrs followed by addition of oligomycin/FCCP/antimycin A /rotenone by Cell Mito stress assay based seahorse XF96 flux analyzer; format: functional
[28] = Dissociation constant, pKa of the compound by UV-vis spectrophotometric analysis; format: physicochemical
SH-SY5Y [29] = assay: Cytotoxicity against human SH-SY5Y cells assessed as decrease in cell mass at > 25 uM incubated for 24 hrs by SRB assay; format: toxicity, cell-based
SH-SY5Y [30] = assay: Effect on cell morphology in human SH-SY5Y cells assessed as reduction in cell body at 10 uM incubated for 24 hrs by Phase-contrast microscopy; format: functional, cell-based
HepG2 [31] = assay: Cytotoxicity against human HepG2 cells assessed as decrease in lysosomal activity at > 3.1 uM incubated for 24 hrs by resazurin reduction assay; format: toxicity, cell-based; details: hepg2, 24 h
SH-SY5Y [32] = assay: Induction of mitochondrial membrane polarization in human SH-SY5Y cells at 10 uM incubated for 24 hrs by JC-1 staining based fluorescence assay; format: functional
SH-SY5Y [33] = assay: Antioxidant activity against human SH-SY5Y cells assessed as increase in ECAR at 10 uM incubated for 24 hrs followed by addition of oligomycin/FCCP/antimycin A /rotenone by Cell Mito stress assay based seahorse XF96 flux analyzer; format: functional
HepG2 [34] = assay: Cytotoxicity against human HepG2 cells assessed as decrease in lysosomal activity at > 10 uM incubated for 24 hrs by resazurin reduction assay; format: toxicity, cell-based; details: hepg2, 24 h
[35] = Drug uptake in C57BL/6J mouse liver mitochondria at 5 uM in presence of succinate by UPLC analysis; format: ADME

CS(=O)(=O)[O-].O=C(/C=C/c1ccc(O)c(O)c1)NCCCCCCCCCC[P+](c1ccccc1)(c1ccccc1)c1ccccc1
Activity (SH-SY5Y [1]): Active | Activity (SH-SY5Y [2]): Toxic | Activity (SH-SY5Y [3]): Toxic | Activity (SH-SY5Y [4]): Active | Activity (SH-SY5Y [5]): Active | Activity (HepG2 [6]): Toxic | Activity (SH-SY5Y [7]): inactive | Activity (SH-SY5Y [8]): Active | Activity (SH-SY5Y [9]): 95.1% | Activity (SH-SY5Y [10]): Active | Drug uptake [11]: Not Active | Activity (SH-SY5Y [12]): 54.9% | Activity (SH-SY5Y [13]): 72.7% | Activity (HepG2 [14]): Toxic | Activity (SH-SY5Y [15]): Active | Activity (SH-SY5Y [16]): inactive | Activity (SH-SY5Y [17]): Toxic | Activity (SH-SY5Y [18]): Active | Activity (HepG2 [19]): Toxic | Drug uptake [20]: Active | Activity (SH-SY5Y [21]): Toxic | Activity (SH-SY5Y [22]): Active | Activity (SH-SY5Y [23]): Active | Activity (SH-SY5Y [24]): Active | Activity (SH-SY5Y [25]): Active | Activity (SH-SY5Y [26]): 69.2% | Activity (SH-SY5Y [27]): inactive | pKa [28]: 8.61 | Activity (SH-SY5Y [29]): Toxic | Activity (SH-SY5Y [30]): Active | Activity (HepG2 [31]): Toxic | Activity (SH-SY5Y [32]): 124.8% | Activity (SH-SY5Y [33]): Active | Activity (HepG2 [34]): Toxic | Drug uptake [35]: ~ 25%
